Values quoted from earlier work, collected in patent US10226403B2, “Composition and method for using medicament for endodontic irrigation, stem cell preparation and tissue regeneration” (priority 2012, dated 2019).
Read-outs that look alike come from different tables or passages of the source.

For OCl [Sodium hypochlorite, sodium hypochlorite], the effectiveness is listed as “highly effective” and the effectiveness (at 1.3-2.5%) is listed as “ineffective”.
